Data: publication PMC5242325 (Antiviral therapy, 2015)

Legend:
[1] = female genital tract compared to BP; cited from earlier work
[2] = administration of a moderate fat meal; cited from earlier work
[3] = Raltegravir pharmacokinetics in blood plasma; conditions: for AUC(0-t): AUC 0-12h; for AUC(0-t) / concentration at 12 h / Cmax: BP, median (IQR)
[4] = Raltegravir pharmacokinetics in cervicovaginal fluid; conditions: CVF, median (IQR); for AUC(0-t): AUC 0-12h
[5] = female, human, in vivo, 400 mg, first dose, HIV-infected postmenopausal women (n=5)
[6] = female, human, in vivo, 400 mg, steady state, HIV-infected postmenopausal women (n=5)
[7] = female, human, in vivo, 400 mg, steady state, HIV-infected premenopausal women (n=6)
[8] = female, human, in vivo, 400 mg, C12, first dose, HIV-infected postmenopausal women (n=5)
[9] = female, human, in vivo, 400 mg, C12, steady state, HIV-infected postmenopausal women (n=5)
[10] = female, human, in vivo, 400 mg, C12, steady state, HIV-infected premenopausal women (n=6)
[11] = female, human, in vivo, 400 mg, Cmax, first dose, HIV-infected postmenopausal women (n=5)
[12] = female, human, in vivo, 400 mg, Cmax, steady state, HIV-infected premenopausal women (n=6)

C[C@@H]1CCO[C@H]2Cn3cc(C(=O)NCc4ccc(F)cc4F)c(=O)c(O)c3C(=O)N12 [dolutegravir]
CVF:BP AUC ratio [1]: 0.07

Cc1nnc(C(=O)NC(C)(C)c2nc(C(=O)NCc3ccc(F)cc3)c(O)c(=O)n2C)o1 [raltegravir]
increase in AUC [2]: 13% | AUC(0-t) [3, 5]: 4.24 µg·h/mL | AUC(0-t) ([3]; female, human, in vivo, 400 mg, first dose, HIV-negative premenopausal women (n=7)): 3.1 µg·h/mL | AUC(0-t) [3, 6]: 6.18 µg·h/mL | AUC(0-t) [3, 7]: 5.76 µg·h/mL | AUC(0-t) ([3]; female, human, in vivo, 400 mg, steady state, HIV-negative premenopausal women (n=7)): 8.44 µg·h/mL | concentration at 12 h [3, 8]: 0.222 µg/mL | concentration at 12 h ([3]; female, human, in vivo, 400 mg, C12, first dose, HIV-negative premenopausal women (n=7)): 0.054 µg/mL | concentration at 12 h [3, 9]: 0.31 µg/mL | concentration at 12 h [3, 10]: 0.023 µg/mL | concentration at 12 h ([3]; female, human, in vivo, 400 mg, C12, steady state, HIV-negative premenopausal women (n=7)): 0.303 µg/mL | Cmax [3, 11]: 1.66 µg/mL | Cmax ([3]; female, human, in vivo, 400 mg, Cmax, first dose, HIV-negative premenopausal women (n=7)): 0.79 µg/mL | Cmax ([3]; female, human, in vivo, 400 mg, Cmax, steady state, HIV-infected postmenopausal women (n=5)): 1.17 µg/mL | Cmax [3, 12]: 1.98 µg/mL | time after dosing by which all subjects had detectable concentrations in BP ([3]; first dose, HIV-negative premenopausal and HIV-infected postmenopausal women): ≤ 1 h | Cmax ([3]; steady state, HIV-negative premenopausal women (n=7)): 1874 (587-2166) ng/mL | AUC(0-t) [4, 5]: 13.8 µg·h/mL | AUC(0-t) ([4]; female, human, in vivo, 400 mg, first dose, HIV-negative premenopausal women (n=7), BLD imputed 0.1 ng/ml): 1.72 µg·h/mL | AUC(0-t) [4, 6]: 9.57 µg·h/mL | AUC(0-t) [4, 7]: 11.5 µg·h/mL | AUC(0-t) ([4]; female, human, in vivo, 400 mg, steady state, HIV-negative premenopausal women (n=7), BLD imputed 0.1 ng/ml): 3.16 µg·h/mL | concentration at 12 h [4, 8]: 1.29 µg/mL | concentration at 12 h [4, 9]: 0.958 µg/mL | concentration at 12 h [4, 10]: 0.447 µg/mL | Cmax [4, 11]: 4.78 µg/mL | Cmax [4, 12]: 1.92 µg/mL | Cmax ([4]; steady state, HIV-infected postmenopausal women (n=5)): 2841 (326-4430) ng/mL
